# Tests used:
# Candida albicans [1] = experiment: Additive antifungal activity against Candida albicans MYA-1003 assessed as fractional inhibitory concentration index measured for 72 hrs in presence of voriconazole
# Candida albicans [2] = experiment: Additive antifungal activity against Candida albicans ATCC MYA-2310 assessed as fractional inhibitory concentration index measured for 72 hrs in presence of posaconazole; type: functional
# Candida albicans [3] = experiment: Synergistic antifungal activity against Candida albicans ATCC 64124 assessed as fractional inhibitory concentration index measured for 72 hrs in presence of posaconazole; type: functional
# Candida albicans [4] = experiment: Synergistic antifungal activity against Candida albicans ATCC 10231 assessed as compound MIC measured after 48 hrs in presence of voriconazole by checkboard based microplate reader analysis; type: functional
# Candida albicans [5] = experiment: Additive antifungal activity against Candida albicans ATCC 10231 assessed as fractional inhibitory concentration index measured for 72 hrs in presence of itraconazole; type: functional
# Candida albicans [6] = experiment: Synergistic antifungal activity against Candida albicans ATCC 64124 assessed as compound MIC measured after 48 hrs in presence of posaconazole by checkboard based microplate reader analysis; type: functional
# Candida albicans [7] = experiment: Synergistic antifungal activity against Candida albicans ATCC 64124 assessed as compound MIC measured after 48 hrs in presence of fluconazole by checkboard based microplate reader analysis; type: functional
# Candida albicans [8] = experiment: Additive antifungal activity against Candida albicans ATCC MYA-2310 assessed as fractional inhibitory concentration index measured for 72 hrs in presence of voriconazole; type: functional
# Candida albicans [9] = experiment: Additive antifungal activity against Candida albicans ATCC 64124 assessed as fractional inhibitory concentration index measured for 72 hrs in presence of fluconazole; type: functional
# Candida albicans [10] = experiment: Partial synergistic antifungal activity against Candida albicans ATCC 64124 assessed as fractional inhibitory concentration index measured for 72 hrs in presence of voriconazole; type: functional
# Candida albicans [11] = experiment: Synergistic antifungal activity against Candida albicans ATCC 10231 assessed as compound MIC measured after 48 hrs in presence of posaconazole by checkboard based microplate reader analysis; type: functional
# Candida albicans [12] = experiment: Additive antifungal activity against Candida albicans ATCC 90819 assessed as fractional inhibitory concentration index measured for 72 hrs in presence of voriconazole; type: functional
# Nakaseomyces glabratus [13] = experiment: Additive antifungal activity against Candida glabrata ATCC 2001 assessed as fractional inhibitory concentration index measured for 72 hrs in presence of voriconazole; type: functional
# Candida albicans [14] = experiment: Synergistic antifungal activity against Candida albicans ATCC 10231 assessed as compound MIC measured after 48 hrs in presence of itraconazole by checkboard based microplate reader analysis; type: functional
# Candida albicans [15] = experiment: Additive antifungal activity against Candida albicans ATCC MYA-2876 assessed as fractional inhibitory concentration index measured for 72 hrs in presence of voriconazole; type: functional
# Candida albicans [16] = experiment: Synergistic antifungal activity against Candida albicans ATCC 64124 assessed as compound MIC measured after 48 hrs in presence of itraconazole by checkboard based microplate reader analysis; type: functional
# Aspergillus terreus [17] = experiment: Additive antifungal activity against Aspergillus terreus ATCC MYA-3633 assessed as fractional inhibitory concentration index measured for 72 hrs in presence of posaconazole; type: functional
# Candida albicans [18] = experiment: Additive antifungal activity against Candida albicans ATCC 90819 assessed as fractional inhibitory concentration index measured for 72 hrs in presence of posaconazole; type: functional
# Candida albicans [19] = experiment: Antifungal activity against Candida albicans ATCC MYA-1003 measured after 48 hrs by broth microdilution analysis; type: functional
# Nakaseomyces glabratus [20] = experiment: Antifungal activity against Candida glabrata ATCC 2001 measured after 48 hrs by broth microdilution analysis; type: functional
# Candida albicans [21] = experiment: Synergistic antifungal activity against Candida albicans ATCC 64124 assessed as compound MIC measured after 48 hrs in presence of voriconazole by checkboard based microplate reader analysis; type: functional
# Candida albicans [22] = experiment: Antifungal activity against Candida albicans ATCC MYA-2310 measured after 48 hrs by broth microdilution analysis; type: functional
# Candida albicans [23] = experiment: Antifungal activity against Candida albicans ATCC MYA-2876 measured after 48 hrs by broth microdilution analysis; type: functional
# Candida albicans [24] = experiment: Antifungal activity against Candida albicans ATCC 90819 measured after 48 hrs by broth microdilution analysis; type: functional
# Candida albicans [25] = experiment: Synergistic antifungal activity against Candida albicans ATCC 10231 assessed as compound MIC measured after 48 hrs in presence of fluconazole by checkboard based microplate reader analysis; type: functional
# Aspergillus terreus [26] = experiment: Additive antifungal activity against Aspergillus terreus ATCC MYA-3633 assessed as fractional inhibitory concentration index measured for 72 hrs in presence of voriconazole; type: functional
# Aspergillus terreus [27] = experiment: Antifungal activity against Aspergillus terreus ATCC MYA-3633 measured after 48 hrs by broth microdilution analysis; type: functional
# Candida albicans [28] = experiment: Additive antifungal activity against Candida albicans ATCC 10231 assessed as fractional inhibitory concentration index measured for 72 hrs in presence of fluconazole; type: functional
# Candida albicans [29] = experiment: Additive antifungal activity against Candida albicans ATCC MYA-2876 assessed as fractional inhibitory concentration index measured for 72 hrs in presence of posaconazole; type: functional
# Candida albicans [30] = experiment: Partial synergistic antifungal activity against Candida albicans ATCC 10231 assessed as fractional inhibitory concentration index measured for 72 hrs in presence of posaconazole; type: functional
# Candida albicans [31] = experiment: Synergistic antifungal activity against Candida albicans ATCC 64124 assessed as compound MIC measured after 48 hrs in presence of ketoconazole by checkboard based microplate reader analysis; type: functional
# Candida albicans [32] = experiment: Partial synergistic antifungal activity against Candida albicans ATCC 10231 assessed as fractional inhibitory concentration index measured for 72 hrs in presence of voriconazole; type: functional
# Candida albicans [33] = experiment: Antifungal activity against Candida albicans ATCC MYA-1237 measured after 48 hrs by broth microdilution analysis; type: functional
# Candida albicans [34] = experiment: Antifungal activity against Candida albicans ATCC 64124 measured after 48 hrs by broth microdilution analysis; type: functional
# Candida albicans [35] = experiment: Additive antifungal activity against Candida albicans MYA-1003 assessed as fractional inhibitory concentration index measured for 72 hrs in presence of posaconazole
# Candida albicans [36] = experiment: Additive antifungal activity against Candida albicans ATCC 64124 assessed as fractional inhibitory concentration index measured for 72 hrs in presence of itraconazole; type: functional
# Candida albicans [37] = experiment: Additive antifungal activity against Candida albicans ATCC 64124 assessed as fractional inhibitory concentration index measured for 72 hrs in presence of ketoconazole; type: functional
# Candida albicans [38] = experiment: Synergistic antifungal activity against Candida albicans ATCC 10231 assessed as compound MIC measured after 48 hrs in presence of ketoconazole by checkboard based microplate reader analysis; type: functional
# Nakaseomyces glabratus [39] = experiment: Additive antifungal activity against Candida glabrata ATCC 2001 assessed as fractional inhibitory concentration index measured for 72 hrs in presence of posaconazole; type: functional
# Candida albicans [40] = experiment: Antifungal activity against Candida albicans ATCC 10231 measured after 48 hrs by broth microdilution analysis; type: functional
# Candida albicans [41] = experiment: Partial synergistic antifungal activity against Candida albicans ATCC 64124 assessed as fractional inhibitory concentration index measured for 72 hrs in presence of ketoconazole; type: functional
# Candida albicans [42] = experiment: Partial synergistic antifungal activity against Candida albicans ATCC 10231 assessed as fractional inhibitory concentration index measured for 72 hrs in presence of ketoconazole; type: functional
# Candida albicans [43] = experiment: Additive antifungal activity against Candida albicans ATCC MYA-1237 assessed as fractional inhibitory concentration index measured for 72 hrs in presence of posaconazole; type: functional
# Candida albicans [44] = experiment: Synergistic antifungal activity against Candida albicans ATCC 10231 assessed as fluconazole MIC measured after 48 hrs by checkboard based microplate reader analysis; type: functional
# Candida albicans [45] = experiment: Additive antifungal activity against Candida albicans ATCC MYA-1237 assessed as fractional inhibitory concentration index measured for 72 hrs in presence of voriconazole; type: functional
# Nakaseomyces glabratus [46] = experiment: Synergistic antifungal activity against Candida glabrata ATCC 2001 assessed as fractional inhibitory concentration index measured for 72 hrs in presence of posaconazole; type: functional
# Candida albicans [47] = experiment: Additive antifungal activity against Candida albicans ATCC 10231 assessed as fractional inhibitory concentration index measured for 72 hrs in presence of ketoconazole; type: functional
# Candida albicans [48] = experiment: Synergistic antifungal activity against Candida albicans ATCC 10231 assessed as ketoconazole MIC measured after 48 hrs by checkboard based microplate reader analysis; type: functional
# Candida albicans [49] = experiment: Synergistic antifungal activity against Candida albicans ATCC 64124 assessed as ketoconazole MIC measured after 48 hrs by checkboard based microplate reader analysis; type: functional
smiles,measurement,setting,value
O=C(CCCN1CCC(O)(c2ccc(Br)cc2)CC1)c1ccccc1,fractional inhibitory concentration index (FICI),Candida albicans [1],1.06
same,fractional inhibitory concentration index (FICI),Candida albicans [2],1.01
same,fractional inhibitory concentration index (FICI),Candida albicans [3],0.19
same,MIC,Candida albicans [4],8 µg/mL
same,fractional inhibitory concentration index (FICI),Candida albicans [5],1.5
same,MIC,Candida albicans [6],8 µg/mL
same,MIC,Candida albicans [7],> 64 µg/mL
same,fractional inhibitory concentration index (FICI),Candida albicans [8],2
same,fractional inhibitory concentration index (FICI),Candida albicans [9],2
same,fractional inhibitory concentration index (FICI),Candida albicans [10],0.75
same,MIC,Candida albicans [11],16 µg/mL
same,fractional inhibitory concentration index (FICI),Candida albicans [12],1
same,fractional inhibitory concentration index (FICI),Nakaseomyces glabratus [13],1.01
same,MIC,Candida albicans [14],64 µg/mL
same,fractional inhibitory concentration index (FICI),Candida albicans [15],2
same,MIC,Candida albicans [16],> 64 µg/mL
same,fractional inhibitory concentration index (FICI),Aspergillus terreus [17],1.25
same,fractional inhibitory concentration index (FICI),Candida albicans [18],1
same,MIC,Candida albicans [19],> 64 µg/mL
same,MIC,Nakaseomyces glabratus [20],> 64 µg/mL
same,MIC,Candida albicans [21],32 µg/mL
same,MIC,Candida albicans [22],> 64 µg/mL
same,MIC,Candida albicans [23],> 64 µg/mL
same,MIC,Candida albicans [24],> 64 µg/mL
same,MIC,Candida albicans [25],64 µg/mL
same,fractional inhibitory concentration index (FICI),Aspergillus terreus [26],2
same,MIC,Aspergillus terreus [27],> 64 µg/mL
same,fractional inhibitory concentration index (FICI),Candida albicans [28],2
same,fractional inhibitory concentration index (FICI),Candida albicans [29],2
same,fractional inhibitory concentration index (FICI),Candida albicans [30],0.75
same,MIC,Candida albicans [31],32 µg/mL
same,fractional inhibitory concentration index (FICI),Candida albicans [32],0.63
same,MIC,Candida albicans [33],> 64 µg/mL
same,MIC,Candida albicans [34],> 64 µg/mL
same,fractional inhibitory concentration index (FICI),Candida albicans [35],1.03
same,fractional inhibitory concentration index (FICI),Candida albicans [36],2
same,fractional inhibitory concentration index (FICI),Candida albicans [37],1
same,MIC,Candida albicans [38],> 64 µg/mL
same,fractional inhibitory concentration index (FICI),Nakaseomyces glabratus [39],0.56
same,MIC,Candida albicans [40],> 64 µg/mL
O=C(CCCN1CCC(O)(c2ccc(Br)cc2)CC1)c1ccc(Br)cc1,fractional inhibitory concentration index (FICI),Candida albicans [1],2
same,fractional inhibitory concentration index (FICI),Candida albicans [2],2
same,fractional inhibitory concentration index (FICI),Candida albicans [41],0.52
same,MIC,Candida albicans [4],32 µg/mL
same,fractional inhibitory concentration index (FICI),Candida albicans [5],1.5
same,MIC,Candida albicans [6],16 µg/mL
same,MIC,Candida albicans [7],> 64 µg/mL
same,fractional inhibitory concentration index (FICI),Candida albicans [8],2
same,fractional inhibitory concentration index (FICI),Candida albicans [9],2
same,fractional inhibitory concentration index (FICI),Candida albicans [10],0.63
same,MIC,Candida albicans [11],32 µg/mL
same,fractional inhibitory concentration index (FICI),Candida albicans [12],2
same,fractional inhibitory concentration index (FICI),Nakaseomyces glabratus [13],2
same,MIC,Candida albicans [14],64 µg/mL
same,fractional inhibitory concentration index (FICI),Candida albicans [15],2
same,MIC,Candida albicans [16],> 64 µg/mL
same,fractional inhibitory concentration index (FICI),Candida albicans [18],2
same,MIC,Candida albicans [19],> 64 µg/mL
same,fractional inhibitory concentration index (FICI),Candida albicans [42],0.52
same,MIC,Nakaseomyces glabratus [20],> 64 µg/mL
same,MIC,Candida albicans [21],32 µg/mL
same,MIC,Candida albicans [22],> 64 µg/mL
same,MIC,Candida albicans [23],> 64 µg/mL
same,MIC,Candida albicans [24],> 64 µg/mL
same,fractional inhibitory concentration index (FICI),Candida albicans [43],2
same,MIC,Candida albicans [44],> 32 µg/mL
same,MIC,Candida albicans [25],> 64 µg/mL
same,fractional inhibitory concentration index (FICI),Aspergillus terreus [26],2
same,MIC,Aspergillus terreus [27],> 64 µg/mL
same,fractional inhibitory concentration index (FICI),Candida albicans [28],2
same,fractional inhibitory concentration index (FICI),Candida albicans [29],2
same,MIC,Candida albicans [31],1 µg/mL
same,MIC,Candida albicans [33],> 64 µg/mL
same,MIC,Candida albicans [34],> 64 µg/mL
same,fractional inhibitory concentration index (FICI),Candida albicans [45],2
same,fractional inhibitory concentration index (FICI),Candida albicans [36],2
same,fractional inhibitory concentration index (FICI),Nakaseomyces glabratus [46],0.38
same,MIC,Candida albicans [38],1 µg/mL
same,fractional inhibitory concentration index (FICI),Nakaseomyces glabratus [39],0.38
same,MIC,Candida albicans [40],> 64 µg/mL
CC(=O)N1CCN(c2ccc(OCC3COC(Cn4ccnc4)(c4ccc(Cl)cc4Cl)O3)cc2)CC1 (stereo not given) [KETOCONAZOLE],fractional inhibitory concentration index (FICI),Candida albicans [47],2
same,MIC,Candida albicans [48],0.5 µg/mL
same,MIC,Candida albicans [49],4 µg/mL
same,MIC,Candida albicans [34],8 µg/mL
same,MIC,Candida albicans [40],1 µg/mL

# From ChEMBL document CHEMBL5252541, “Repurposing antipsychotic drugs into antifungal agents: Synergistic combinations of azoles and bromperidol derivatives in the treatment of various fungal infections” (Eur J Med Chem, 2017)
